The text below walks through data of patent US5627270A, “Glycosylated steroid derivatives for transport across biological membranes and process for making and using same” (Trustees of Princeton University, priority 1994, dated 1997).

Experiment [1] in a line: ASSAY II: proton transport across lipid membranes. It is filed as biochemical.
A short description of experiment [2]: ASSAY I: leakage of carboxyfluorescein from vesicles. It is filed as biochemical.

Regarding `CCOC(=O)O[C@@H]1CC[C@@]2(C)[C@@H](C1)C[C@@H](O[C@H]1O[C@H](CO)[C@@H](O)[C@H](O)[C@H]1O)[C@@H]1[C@@H]2C[C@H](O[C@H]2O[C@H](CO)[C@@H](O)[C@H](O)[C@H]2O)[C@]2(C)[C@@H]([C@H](C)CCC(=O)OC)CC[C@@H]12` [Entry 1, 3α-ethylcarbonate-cis-5,10-bis-α,α-7,12-glucosyl cholic acid methyl ester], the results for the “% Decrease in Fluorescence” value in experiment [1] (0.00579 mM final concentration) and in experiment [1] (0.0116 mM final concentration) were 4.3% and 7.6%, respectively. Moreover, the “% increase in Fluorescence” value in experiment [2] (0.117 mM final concentration) is on record as 0%.

Regarding `C[C@H](CCC(=O)O)[C@H]1CC[C@H]2[C@@H]3[C@H](O[C@H]4O[C@H](CO)[C@@H](O)[C@H](O)[C@H]4O)C[C@@H]4C[C@H](O)CC[C@]4(C)[C@H]3C[C@H](O[C@H]3O[C@H](CO)[C@@H](O)[C@H](O)[C@H]3O)[C@]12C` [Entry 3, 3α-hydroxy-cis-5,10-bis-α,α-7,12-glucosyl cholic acid], the figures for the “% Decrease in Fluorescence” value in experiment [1] (0.00579 mM final concentration) and in experiment [1] (0.0116 mM final concentration) were 21.0% and 35.4%, respectively. For the same compound, the “% increase in Fluorescence” value in experiment [2] (2.34 mM final concentration) was 0%.

Turning to `COC(=O)CC[C@@H](C)[C@H]1CC[C@H]2[C@@H]3[C@H](O[C@H]4O[C@H](CO)[C@@H](O)[C@H](O)[C@H]4O)C[C@@H]4C[C@H](O)CC[C@]4(C)[C@H]3C[C@H](O[C@H]3O[C@H](CO)[C@@H](O)[C@H](O)[C@H]3O)[C@]12C` [Entry 4, 3α-hydroxy-cis-5,10-bis-α,α-7,12-glucosyl cholic acid methyl ester], the “% Decrease in Fluorescence” value in experiment [1] (0.00579 mM final concentration) is given as 7.89%; in experiment [1] (0.0116 mM final concentration), 12.3%. Further, the “% increase in Fluorescence” value in experiment [2] (0.117 mM final concentration) turned out to be 0%.

As for `C[C@H](CCC(=O)NC(Cc1c[nH]c2ccccc12)C(=O)O)[C@H]1CC[C@H]2[C@@H]3[C@H](O[C@H]4O[C@H](CO)[C@@H](O)[C@H](O)[C@H]4O)C[C@@H]4C[C@H](O)CC[C@]4(C)[C@H]3C[C@H](O[C@H]3O[C@H](CO)[C@@H](O)[C@H](O)[C@H]3O)[C@]12C` (stereo partly drawn) [Entry 5, 3α-hydroxy-cis-5,10-bis-α,α-7,12-glucosyl-25-tryptophanyl cholic acid], the “% Decrease in Fluorescence” value worked out at 19.4% in experiment [1] (0.00579 mM final concentration) and 26.1% in experiment [1] (0.0116 mM final concentration). The “% increase in Fluorescence” value in experiment [2] (0.117 mM final concentration) turned out to be 57.3%.

Regarding `COC(=O)CC[C@@H](C)[C@H]1CC[C@H]2[C@@H]3[C@H](O[C@H]4O[C@H](CO)[C@@H](O)[C@H](O)[C@H]4O)C[C@@H]4C[C@H](OC(=O)c5ccccc5)CC[C@]4(C)[C@H]3C[C@H](O[C@H]3O[C@H](CO)[C@@H](O)[C@H](O)[C@H]3O)[C@]12C` [Entry 7, 3α-O-benzoyl-cis-5,10-bis-α,α-7,12-glucosyl cholic acid methyl ester], the figures for the “% Decrease in Fluorescence” value in experiment [1] (0.00579 mM final concentration) and in experiment [1] (0.0116 mM final concentration) were 15.2% and 19.8%, respectively. Moreover, the “% increase in Fluorescence” value in experiment [2] (0.117 mM final concentration) stood at 89.1%. In experiment [2] (concentrations required for >50% leakage taken as measure), the “efficacy in permeabilizing phospholipid membranes” value is given as “the most effective glycosylated steroids tested”.

With `COC(=O)CC[C@@H](C)[C@H]1CC[C@H]2[C@@H]3[C@H](O[C@@H]4O[C@H](CO)[C@@H](O)[C@H](O)[C@H]4O)C[C@H]4C[C@H](OC(=O)c5ccccc5)CC[C@]4(C)[C@H]3C[C@H](O[C@@H]3O[C@H](CO)[C@@H](O)[C@H](O)[C@H]3O)[C@]12C` [Entry 9, 3α-O-benzoyl-trans-5,10-bis-β,β-7,12-glucosyl cholic acid methyl ester], the “% Decrease in Fluorescence” value in experiment [1] (0.00579 mM final concentration) amounted to 27.4%; in experiment [1] (0.0116 mM final concentration) it was 43.0%. The “% increase in Fluorescence” value in experiment [2] (0.117 mM final concentration) is reported as 24.5%.

Turning to `C[C@H](CCC(=O)O)[C@H]1CC[C@H]2[C@@H]3[C@H](O[C@@H]4O[C@H](CO)[C@@H](O)[C@H](O)[C@H]4O)C[C@@H]4C[C@H](O)CC[C@]4(C)[C@H]3C[C@H](O[C@@H]3O[C@H](CO)[C@@H](O)[C@H](O)[C@H]3O)[C@]12C` [Entry 10, 3α-hydroxy-cis-5,10-bis-β,β-7,12-glucosyl cholic acid], the “% increase in Fluorescence” value in experiment [2] (0.117 mM final concentration) turned out to be 0%.

With Gramicidin [reference compound], the “% Decrease in Fluorescence” value in experiment [1] (0.000579 mM final concentration) is given as 81.6%; in experiment [1] (0.00579 mM final concentration), 87.2%.
